# Patent US9969698B2, “Quinoxalinyl-piperazinamide methods of use” (REXAHN PHARMACEUTICALS, INC., priority 2015, dated 2018)
# Tests used:
# p68 RNA helicase = molecular target: T1, p68 RNA helicase (Homo sapiens, UniProt P17844); experiment: RNA-dependent ATPase assay; type: biochemical; settings: total RNA extracted from yeast
# T1 construct: made in house
# Method: ATPase activity was determined by measuring the released inorganic phosphate during ATP hydrolysis using a direct colorimetric assay (Shin et al., Cancer Res., 67:7572-7578 (2007); Yang et. al., Cell, 127:139-155 (2006)). A typical ATPase assay was carried out in 50 μl reaction volumes, containing 20 mM Tris-HCl pH 7.5, 200 mM NaCl, 1 mM MgCl2, 5 mM DTT, ˜1-2 of appropriate substrate, 4 mM ATP, and 10 μl of helicase. The ATPase reactions were incubated at 37° C. for 30 minutes. After incubation, 1 ml of malachitegreen-molybdenum reagent was added to the reaction mixture, and reactions were further incubated at room temperature for exactly 5 minutes. The absorption (A) at 630 nm was then measured. The concentrations of inorganic phosphate were determined by matching the A630nm in a standard curve of A630nm vs. known phosphate concentrations. […] The percentage of inhibition by defining the ATPase activity of phospho-p68 without RX-5902 as zero percent inhibition was calculated and IC50 of RX-5902 was calculated by non-linear regression analysis using Kaledia Graph software program (Synergy Software, Reading, Pa.).
# The effect of RX-5902 on ATPase activity of p68 was investigated. To do this, ATPase activity of recombinant p68 in the presence of RX-5902 and total RNA extracted from yeast were measured.
# Y593 phospho-p68 = molecular target: T2, Y593 phospho-p68 (Homo sapiens, UniProt P17844); experiment: Filter binding assay with 3H-labeled RX-5902; settings: estimated by 50% of p68 bound to RX-5902
# T2 construct: purchased Origene (Rockville, Md.)
# Method: (§1) Recombinant β-catenin was used without further treatment whereas recombinant p68 protein was either used as p68 or phosphorylated by c-Abl for filter binding assay. Recombinant c-Abl was obtained from Abeam (Cambridge, Mass.).
# (§2) Filter binding studies have been previously described elsewhere (Coombs et al., Proc. Natl. Acad. Sci. USA, 75:5291-5295 (1978). Briefly, recombinant p68 RNA helicase with/without tyrosine phosphorylation was added to the ^3H-labeled RX-5902 (10 Ci/mmol) with PBS. ^3H-labeled RX-5902 was synthesized from Quotient Bioresearch (Cardiff, UK). After incubation at room temperature for 30 minutes, the binding mixtures were loaded onto a nitrocellulose membrane. The membrane was washed five times with PBS, and then dried by vacuum. The amounts of RX-5902 bound to p68 with/without phosphorylation of p68 were determined by ^3H scintillation counting. The same procedure was done with ^3H-labeled RX-5902 alone without addition of p68 RNA helicase and sample p68 RNA helicase alone without addition of the ^3H-labeled RX-5902 as background ^3H scintillation counting. The binding percentages of p68 to the compound were calculated and plotted against concentrations. The dissociation constant (Kd) was estimated by the concentration at 50% of p68 bound to RX-5902 and calculated by linear regression analysis.
# unphosphorylated p68 = molecular target: T3, unphosphorylated p68 (Homo sapiens, UniProt P17844); experiment: Filter binding assay with 3H-labeled RX-5902; settings: filter binding studies
# T3 construct: purchased Origene (Rockville, Md.)
# Method: as §1, §2
# T1 sequence (P17844 whole entry): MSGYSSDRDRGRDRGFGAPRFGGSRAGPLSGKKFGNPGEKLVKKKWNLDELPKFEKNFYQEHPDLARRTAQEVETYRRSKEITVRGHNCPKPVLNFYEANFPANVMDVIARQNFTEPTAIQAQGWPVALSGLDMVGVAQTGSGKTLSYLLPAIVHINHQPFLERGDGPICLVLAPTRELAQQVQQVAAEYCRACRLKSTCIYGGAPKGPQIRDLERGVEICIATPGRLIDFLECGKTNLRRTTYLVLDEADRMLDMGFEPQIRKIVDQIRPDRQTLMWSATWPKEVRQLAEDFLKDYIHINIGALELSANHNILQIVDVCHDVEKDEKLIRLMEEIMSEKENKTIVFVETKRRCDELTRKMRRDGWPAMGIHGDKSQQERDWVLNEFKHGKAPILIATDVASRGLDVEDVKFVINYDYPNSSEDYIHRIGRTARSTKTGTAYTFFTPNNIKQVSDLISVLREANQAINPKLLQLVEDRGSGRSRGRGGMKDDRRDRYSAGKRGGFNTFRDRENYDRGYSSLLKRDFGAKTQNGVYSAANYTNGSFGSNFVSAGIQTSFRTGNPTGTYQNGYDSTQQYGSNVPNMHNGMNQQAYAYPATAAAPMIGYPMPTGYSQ
# T3 sequence (P17844 whole entry): as above
# T2 sequence (P17844 whole entry): as above
smiles,measurement,setting,value
"COc1cc(OC)cc(N2CCN(C(=O)Nc3nc4cc(F)ccc4nc3OC)CC2)c1 [RX-5902, 4-(3,5-dimethoxyphenyl)-N-(7-fluoro-3-methoxyquinoxalin-2-yl)piperazine-1-carboxamide]",effect on RNA-dependent ATPase activity,p68 RNA helicase; 0.2 μM,did not affect
same,inhibition of RNA-dependent ATPase activity,p68 RNA helicase; 20 μM,less than 30%
same,Kd,Y593 phospho-p68,~19 nM
same,interaction with unphosphorylated p68,unphosphorylated p68,did not interact
